According to PMC11187126, “Structure and dynamics of the pyroglutamylated RF-amide peptide QRFP receptor GPR103” (Nature Communications, 2024):
Read-outs that look alike come from different tables or passages of the source. No end group written: not given here.

Target: T1, GPR103 E297^6.59A (Homo sapiens, UniProt Q96P65, E297A)
T1 construct: we used human full-length QRFPR-encoding plasmids; expressed in transfected cells; host or cells: HEK293 cells (HEK293A in the flow cytometry section), pCAGGS vector
T1 sequence (Q96P65 1-431 E297A): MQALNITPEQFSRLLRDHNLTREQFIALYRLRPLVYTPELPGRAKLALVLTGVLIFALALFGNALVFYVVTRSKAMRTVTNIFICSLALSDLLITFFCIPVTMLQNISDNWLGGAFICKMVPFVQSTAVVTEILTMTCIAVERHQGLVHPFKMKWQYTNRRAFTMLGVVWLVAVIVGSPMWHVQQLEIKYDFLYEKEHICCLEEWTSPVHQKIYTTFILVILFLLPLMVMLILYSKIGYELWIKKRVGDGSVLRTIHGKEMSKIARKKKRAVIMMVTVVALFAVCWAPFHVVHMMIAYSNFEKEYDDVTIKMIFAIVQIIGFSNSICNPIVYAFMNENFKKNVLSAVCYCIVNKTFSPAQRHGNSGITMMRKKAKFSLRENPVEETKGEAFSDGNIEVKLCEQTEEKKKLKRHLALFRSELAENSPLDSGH
Test: TGFα shedding assay; Exp. level >WT (1:1)
Format: cell-based
Procedure: For the TGFα shedding assay and the flow cytometry analysis, we used human full-length QRFPR-encoding plasmids. Specifically, GPR103 was N-terminally modified with an HA signal sequence followed by a FLAG epitope and then a flexible linker ([…]; the FLAG epitope is underlined) and inserted into the pCAGGS vector. Plasmid encoding GPR103 mutants were generated using Quickchange Site-Directed Mutagensis kit (Agilent).
The TGFα shedding assay was performed as described previously with minor modifications. Plasmid transfection was performed in a 6-well plate with a mixture of 500 ng (per well in a 6-well plate) AP-TGFα-encoding plasmid and 200 ng GPR103-encoding plasmid. After 1-day culture, the transfected cells were harvested by trypsinization, pelleted by centrifugation at 190 × g for 5 min, and washed once with 5 mM HEPES (pH 7.4)-containing Hank’s Balanced Salt Solution (HBSS). After centrifugation, the cells were resuspended in 8 mL of the HEPES-containing HBSS. The cell suspension was seeded in a 96-well culture plate (cell plate) at a volume of 90 μL (per well hereafter) and incubated in a 37 °C incubator with 5% CO2 for 30 min. […] After spinning the cell plates at 190 × g for 2 min, 80 μL of conditioned media was transferred to an empty 96-well plate (conditioned media (CM) plate). Then, 80 μL of AP reaction solution (10 mM p-nitrophenylphosphate (p-NPP), 120 mM Tris-HCl (pH 9.5), 40 mM NaCl, and 10 mM MgCl2) was dispensed into the cell plates and the CM plates. Absorbance at 405 nm of the plates was measured using a microplate reader (SpectraMax 340 PC384, Molecular Devices) before and after 1-h incubation at room temperature. Ligand-induced AP-TGFα release was calculated by subtracting spontaneous AP-TGFα release signal from ligand-induced AP-TGFα release signal. The AP-TGFα release signals were fitted to a four-parameter sigmoidal concentration–response curve, using the Prism 10 software (GraphPad Prism). For each replicate experiment, the pEC50 parameter (negative logarithmic values of EC50 values) of the individual GPR103 mutants were normalized to that of the wild-type GPR103 performed in parallel, and resulting ∆pEC50 values were used to denote ligand response activity of the mutants. […]
Exp. le vel: WT (1:5 0)Exp. le vel: WT (1:5 0)Exp. le vel: WT (1:5 0)Exp. le vel: WT (1:2 0)Exp. le vel: WT (1:2 0)Exp. le vel: WT (1:1 0) […]
L1 4N - t e r mA F2 5N - t e r mA I 2 6N - t e r mA Y 2 9N - t e r mA C 9 82 .5 7A T10 22 .6 1A Exp . l eve l: WT (1 :5)Exp . l evel : >WT (1 :1)Exp. le vel: WT (1:2 0)Exp. le vel: WT (1:2 0)Exp. le vel: WT (1:5 0)Exp . l eve l: WT (1 :1) […]
Exp. le vel: WT (1:1 0)Exp. le vel: WT (1:2 0) C 1 1 83 .2 5AExp. le vel: WT (1:5 0)Exp. le vel: WT (1:5 0)Exp. le vel: WT (1:2 0)Exp . l eve l: WT (1 :5) […]
Exp. le vel: WT (1:5 0)Exp. le vel: WT (1:1 0)Exp. le vel: WT (1:5 0) E203ECL2AExp . l evel : >WT (1 :1)Exp. le vel: WT (1:5 0)Exp. le vel: WT (1:5 0) […]
Exp . l eve l: WT (1 :1) F28Exp. le vel: WT (1:5 0) C 2 8 56 .4 7AExp. le vel: WT (1:2 0) WExp. le vel: WT (1:2 0) F28Exp. le vel: WT (1:5 0)Exp . l evel : >WT (1 :1) […]
Exp. le vel: WT (1:5 0)Exp. le vel: WT (1:5 0) C 3 2 77 .4 8AExp . l eve l: WT (1 :5)Exp . l evel : >WT (1 :1)Exp . l evel : >WT (1 :1) […]
Suppl eme nt ary Figure 1 | Mutational analysis of GPR103. […]
mutants. Data are presented as mean values ± SEM, normally n=3-5; dots), each performed in triplicate. b-d Cell-surface expression (b) and QRFP26-in-duced activation of GPR103 (c, d) were analyzed by the flow cytometry and the TGFα shedding assay, respectively. From the concentration–response curves (a), Emax (c) and ΔpEC50 (d) values relative to the wild type were calculated. Colors in the mutant bars indicate an expression level matching to that of titrated wild type. Statistical analyses were performed using the ordinary one-way ANOVA followed by Dunnett tests with the expression-matched […]

- Emax (Exp. #1): 106.77 % WT
- Emax (Exp. #2): 105.91 % WT
- Emax (Exp. #3): 110.91 % WT
- Emax (mean, read-out: Emax): 108%
- EC50 (n = 3): 28.2 nM
- Emax (n = 3, read-out: Emax): 112 ± 1.3%
Substance: TSGPLGNLAEELNGYSRKKGGFSFRF-NH2 [QRFP26]
